Earlier results on 8 compounds are cited in US8389024B2, “Abscisic acid against cancer” (priority 2005, dated 2013).

Where two headings read alike, the source gives them in different places.

The subject of data set [1] is leaf discs of V. Faba.
The conditions of data set [2]: the mentioned concentration (50 mg/ml), Sigma-Aldrich.
Data set [3] concerns TCA8113 (human oral carcinoma). The conditions noted are these: TCA8113 cells in vitro.
Data set [4] has as its system nuclear protein Ki67.
In data set [5] the test system is humans with cancer. The settings on record: 62 random cases, inconclusive cases not considered; digestive treatment with ABA plus vaccine against P. crytocides.
Data set [6] has as its system a variety of tumor cells.
Data set [7] concerns stomatal opening. The settings on record: 10 mcM ABA extracellular application.
The test system of data set [8] is TNFALFA. The settings on record: human monocytes, murine microglia and murine macrophages.
Data set [9] concerns C 1498 transplanted tumor with myeloid leukemia. The conditions noted are these: for rate of survival at the end of 14 days: groups of 10 mice, treated 7 days; for survival: oral.
The subject of data set [10] is DU-145 (prostate cancer). The settings on record: DU-145 tumor cells.
The subject of data set [11] is Lemna gibba G1.
The subject of data set [12] is human and murine pancreatic beta cells.
Data set [13] deals with human granulocytes.
Data set [14] concerns HL-60 (promyelocytic leukemia). The settings on record: HL-60 tumor cells.
Data set [15] concerns four human cancer cell lines (HELA, DU145, HCT116 AND K562).
The subject of data set [16] is lymphoblastic leukemia, prostate, breast and melanoma human cancer cells.
Data set [17] relates to head and neck squamous cell carcinoma. The settings on record: in vivo.

For the compound `CC1=CC(=O)CC(C)(C)C1(O)/C=C/C(C)=C\C(=O)O` (racemic) [racemic ABA (R)], the “half-lives (catabolism)” value in data set [1] was 30 to 32 h.
With `CC1=CC(=O)CC(C)(C)C1(O)/C=C/C(C)=C\C(=O)O` (racemic) [(+/−)-Abscisic acid], the “appearance of the solution in ethanol” value in data set [2] was “clear to slightly hazy”.
As to “[S-(Z,E)]-5-(1-Hydroxy-2,6,6-trimethyl-4-oxo-2-cyclohexen-1-yl)-3-methyl-2,4-pentadienoic acid [ABA]”, the “expression of differentiation and apoptosis markers” value in data set [3] is “expression of RARBETA, involucrin protein and caspase-3 mRNA”. For the same compound, the “nuclear protein Ki67 expressed in proliferating tumor cells” value in [4] is “reduced”. For the same compound, in data set [5], the success rate entry is “around 82%”. Besides, in data set [6], the angiogenesis entry was “inhibit angiogenesis”; the apoptosis result was “produce apoptosis”; the “cell cycle and cell division of proliferating tumor cells” value is “make proliferating tumor cells stagnate in S-phase and stop cell division”; the “differentiation of cancer cells” value is reported as “become cancer cells in normal cells”. Besides, the “inhibition of stomatal opening” value in [7] (pH 6.15) was 98%. For the same compound, the “inhibition of stomatal opening” value in data set [7] (pH 8.0) was 57%. Also, the TNFALFA result in [8] is on record as “increased”. Moreover, the “rate of survival at the end of 14 days” value in [9] (Group II, ABA 1 mg/kg (i.p)) was 9 survivors. Moreover, in data set [9] (Group III, ABA 10 mg/kg (i.p)), the “rate of survival at the end of 14 days” value is 10 survivors. Further, the “rate of survival at the end of 14 days” value in [9] (Group IV, ABA 10 mg/kg (oral)) was 6 survivors. In [9] (Group V, ABA 100 mg/kg (oral)), the “rate of survival at the end of 14 days” value is on record as 9 survivors. Besides, in [9] (group number II, 1 mg/kg), the survivors is 90%. Besides, the “inhibition of the tumor system (C1498) in mice (C57BL/6J)” value in [9] (mouse, in vivo) is “marked effect in the inhibition”. Besides, the survival in [9] (dose at 10 mg/kg) is reported as 60%. Also, the survival in data set [9] (dose at 100 mg/kg) was 90%. In addition, in data set [10], the “changes in morphology of cancer cells” value was “growth in poor condition and nuclear pycnosis”. Moreover, the “EPD after ABA treatment” value in data set [11] (after 15 hours ABA treatment, from −109 mV) was −194 mV. The “potential increase in average (EPD)” value in data set [11] (treatment with 10-100 mcm ABA) is listed as 85 mV. Further, the insulin secretion result in data set [12] is reported as “endogenous stimulator of insulin secretion”. The “functional activities of human granulocytes” value in [13] is “stimulates several functional activities as phagocytosis, reactive oxygen species (ROS) and nitric oxide production, and chemotaxis”. Moreover, the “changes in morphology of cancer cells” value in [14] is “absence of tumor cell nuclear membrane microvilli and presentation of typical apoptosis characteristics”. Also, in data set [15], the apoptosis entry is listed as “induction of apoptosis”, the cell cycle progression result is “changed cell cycle progression”, the cell proliferation rate entry is reported as “reduced cell proliferation rate” and the “luminescence (indicator of reduced negative surface charge)” value is “reduced luminescence”. Also, the tumor growth entry in data set [15] is “tumor growth reduction”.
As to `CC/C=C\C[C@H]1C(=O)CC[C@@H]1CC(=O)O` [JA, jasmonic acid], the “proliferation or apoptosis of mammalian cancer cells” value (shortened to “proliferation or apoptosis”) in data set [16] is given as “can suppress the proliferation or cause apoptosis”.
As to `CC1=C(/C=C/C(C)=C/C=C/C(C)=C\C(=O)O)C(C)(C)CCC1` [ISOTRETINOIN], the “effectiveness in chemoprevention trial” value in data set [17] was “not effective”.
In the case of `CC1=CC(=O)CC(C)(C)[C@@]1(O)/C=C/C(C)=C\C(=O)O` [natural ABA (S)], the “half-lives (catabolism)” value in data set [1] was 6 to 8 h.
`CC/C=C\CC1C(=O)CCC1CC(=O)OC` (stereo not drawn) [MJ, methyl jasmonate]: the “proliferation or apoptosis” value in data set [16] was “can suppress the proliferation or cause apoptosis”.
As to `O=C([O-])c1ccccc1O.[Na+]` [SA, sodium salicylate], the “proliferation or apoptosis” value in data set [16] is on record as “can suppress the proliferation or cause apoptosis”.
